# pIC50: −log10 of the molar value.
# Target: T1, Human HPK1, catalytic domain (Homo sapiens, UniProt Q92918)
# T1 construct: purchased Carna
# T1 sequence (Q92918 1-346): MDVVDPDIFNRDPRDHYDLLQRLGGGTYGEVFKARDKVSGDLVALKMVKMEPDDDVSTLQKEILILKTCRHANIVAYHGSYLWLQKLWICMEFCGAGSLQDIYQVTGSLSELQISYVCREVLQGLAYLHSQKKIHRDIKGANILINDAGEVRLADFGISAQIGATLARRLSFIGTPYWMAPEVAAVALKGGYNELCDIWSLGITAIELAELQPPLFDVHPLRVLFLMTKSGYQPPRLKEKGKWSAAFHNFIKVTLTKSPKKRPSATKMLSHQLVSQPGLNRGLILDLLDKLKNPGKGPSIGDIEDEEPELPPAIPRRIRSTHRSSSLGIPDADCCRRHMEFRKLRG
# Assay: HPK1-SLP76 TR-FRET assay
# Format: biochemical
# Conditions: 75 pM HPK1, 10 uM ATP, 10 nM SLP76, 30 min compound pre-incubation
row,SMILES,pIC50
1,"Cc1ccc(C)c(Nc2ncc(C(N)=O)c(Nc3cccc4c3CCNC4=O)n2)c1 [Example 25-36, 2-[(2,5-dimethylphenyl)amino]-4-[(1-oxo-1,2,3,4-tetrahydroisoquinolin-5-yl)amino]pyrimidine-5-carboxamide]",6.77
2,"NC(=O)c1cnc(Nc2ccc(F)c(C(F)(F)F)c2)nc1Nc1cccc2c1CCNC2=O [Example 25-37, 2-{[4-fluoro-3-(trifluoromethyl)phenyl]amino}-4-[(1-oxo-1,2,3,4-tetrahydroisoquinolin-5-yl)amino]pyrimidine-5-carboxamide]",7.16
3,"NC(=O)c1cnc(NCc2ccc(C(F)(F)F)cc2)nc1Nc1cccc2c1CCNC2=O [Example 25-38, 4-[(1-oxo-1,2,3,4-tetrahydroisoquinolin-5-yl)amino]-2-({[4-(trifluoromethyl)phenyl]methyl}amino)pyrimidine-5-carboxamide]",6.39
4,"Cc1ccc(Nc2ncc(C(N)=O)c(Nc3cccc4c3CCNC4=O)n2)c(F)c1F [Example 25-39, 2-[(2,3-difluoro-4-methylphenyl)amino]-4-[(1-oxo-1,2,3,4-tetrahydroisoquinolin-5-yl)amino]pyrimidine-5-carboxamide]",7.71
5,"COc1c(F)cc(Nc2ncc(C(N)=O)c(Nc3cccc4c3CCNC4=O)n2)cc1F [Example 25-40, 2-[(3,5-difluoro-4-methoxyphenyl)amino]-4-[(1-oxo-1,2,3,4-tetrahydroisoquinolin-5-yl)amino]pyrimidine-5-carboxamide]",7.41
6,"COc1cc(F)ccc1Nc1ncc(C(N)=O)c(Nc2cccc3c2CCNC3=O)n1 [Example 25-41, 2-[(4-fluoro-2-methoxyphenyl)amino]-4-[(1-oxo-1,2,3,4-tetrahydroisoquinolin-5-yl)amino]pyrimidine-5-carboxamide]",6.13
7,"NC(=O)c1cnc(Nc2cccc(C(F)(F)F)c2F)nc1Nc1cccc2c1CCNC2=O [Example 25-42, 2-{[2-fluoro-3-(trifluoromethyl)phenyl]amino}-4-[(1-oxo-1,2,3,4-tetrahydroisoquinolin-5-yl)amino]pyrimidine-5-carboxamide]",7.05
8,"NC(=O)c1cnc(Nc2cccc3sccc23)nc1Nc1cccc2c1CCNC2=O [Example 25-43, 2-[(1-benzothiophen-4-yl)amino]-4-[(1-oxo-1,2,3,4-tetrahydroisoquinolin-5-yl)amino]pyrimidine-5-carboxamide]",7.11
9,"COc1ncccc1Nc1ncc(C(N)=O)c(Nc2cccc3c2CCNC3=O)n1 [Example 25-45, 2-[(2-methoxypyridin-3-yl)amino]-4-[(1-oxo-1,2,3,4-tetrahydroisoquinolin-5-yl)amino]pyrimidine-S-carboxamide]",7.38
10,"COc1cc2c(cc1Nc1ncc(C(N)=O)c(N[C@@H](C)C3CCCCC3)n1)CN(C)CC2 [Example 26-7, 4-{[(1S)-1-cyclohexylethyl]amino}-2-[(6-methoxy-2-methyl-1,2,3,4-tetrahydroisoquinolin-7-yl)amino]pyrimidine-5-carboxamide]",7.92
11,"COc1cc2c(cc1Nc1ncc(C(N)=O)c(NC3CCN(C4CC4)C3)n1)CN(C)CC2 (stereo not drawn) [Example 26-11, 4-[(1-cyclopropylpyrrolidin-3-yl)amino]-2-[(6-methoxy-2-methyl-1,2,3,4-tetrahydroisoquinolin-7-yl)amino]pyrimidine-5-carboxamide]",7.59
12,"COc1cc2c(cc1Nc1ncc(C(N)=O)c(NC3CCC(c4ccccc4)C3)n1)CN(C)CC2 (stereo not drawn) [Example 26-12, 2-[(6-methoxy-2-methyl-1,2,3,4-tetrahydroisoquinolin-7-yl)amino]-4-[(3-phenylcyclopentyl)amino]pyrimidine-5-carboxamide]",7.74
13,"COc1cc2c(cc1Nc1ncc(C(N)=O)c(NC3CCC(C(F)(F)F)CC3)n1)CN(C)CC2 (stereo not drawn) [Example 26-16, 2-[(6-methoxy-2-methyl-1,2,3,4-tetrahydroisoquinolin-7-yl)amino]-4-{[4-(trifluoromethyl)cyclohexyl]amino}pyrimidine-5-carboxamide]",7.93
14,"COc1cc2c(cc1Nc1ncc(C(N)=O)c(N[C@H]3CC[C@@H](N(C)C)CC3)n1)CN(C)CC2 [Example 26-17, 4-{[cis-4-(dimethylamino)cyclohexyl]amino}-2-[(6-methoxy-2-methyl-1,2,3,4-tetrahydroisoquinolin-7-yl)amino]pyrimidine-5-carboxamide]",7.22

# These reach a higher pIC50. Values come first.
row,pIC50,SMILES
1,9.52,"CC(C)(C)c1ccc(Nc2ncc(C(N)=O)c(Nc3cccc4c3CCNC4=O)n2)cc1 [Example 25-35, 2-[(4-tert-butylphenyl)amino]-4-[(1-oxo-1,2,3,4-tetrahydroisoquinolin-5-yl)amino]pyrimidine-5-carboxamide]"
2,8.71,"NC(=O)c1cnc(Nc2ccc(CC(F)(F)F)cc2)nc1Nc1cccc2c1CCNC2=O [Example 25-44, 4-[(1-oxo-1,2,3,4-tetrahydroisoquinolin-5-yl)amino]-2-{[4-(2,2,2-trifluoroethyl)phenyl]amino}pyrimidine-5-carboxamide]"
3,9.59,"COc1cc2c(cc1Nc1ncc(C(N)=O)c(NC3CCCCCC3)n1)CN(C)CC2 [Example 26-1, 4-(cycloheptylamino)-2-[(6-methoxy-2-methyl-1,2,3,4-tetrahydroisoquinolin-7-yl)amino]pyrimidine-5-carboxamide]"
4,9.22,"COc1cc2c(cc1Nc1ncc(C(N)=O)c(NC3CCCCC3)n1)CN(C)CC2 [Example 26-2, 4-(cyclohexylamino)-2-[(6-methoxy-2-methyl-1,2,3,4-tetrahydroisoquinolin-7-yl)amino]pyrimidine-5-carboxamide]"
5,8.88,"COc1cc2c(cc1Nc1ncc(C(N)=O)c(NC3C4CC3C4)n1)CN(C)CC2 (stereo not drawn) [Example 26-4, 4-[(bicyclo[1.1.1]pentan-2-yl)amino]-2-[(6-methoxy-2-methyl-1,2,3,4-tetrahydroisoquinolin-7-yl)amino]pyrimidine-5-carboxamide]"
6,8.01,"COc1cc2c(cc1Nc1ncc(C(N)=O)c(N[C@H]3CC[C@@H](N)CC3)n1)CN(C)CC2 [Example 26-5, 4-[(cis-4-aminocyclohexyl)amino]-2-[(6-methoxy-2-methyl-1,2,3,4-tetrahydroisoquinolin-7-yl)amino]pyrimidine-5-carboxamide]"
7,8.88,"COc1cc2c(cc1Nc1ncc(C(N)=O)c(N[C@H](C)C3CCCCC3)n1)CN(C)CC2 [Example 26-6, 4-{[(1R)-1-cyclohexylethyl]amino}-2-[(6-methoxy-2-methyl-1,2,3,4-tetrahydroisoquinolin-7-yl)amino]pyrimidine-5-carboxamide]"
8,9.02,"COc1cc2c(cc1Nc1ncc(C(N)=O)c(N[C@@H]3COC[C@H]3SC)n1)CN(C)CC2 [Example 26-8, 2-[(6-methoxy-2-methyl-1,2,3,4-tetrahydroisoquinolin-7-yl)amino]-4-{[(3R,4S)-4-(methylsulfanyl)oxolan-3-yl]amino}pyrimidine-5-carboxamide]"
9,9.02,"COc1cc2c(cc1Nc1ncc(C(N)=O)c(NCc3cccc(F)c3F)n1)CN(C)CC2 [Example 26-9, 4-{[(2,3-difluorophenyl)methyl]amino}-2-[(6-methoxy-2-methyl-1,2,3,4-tetrahydroisoquinolin-7-yl)amino]pyrimidine-5-carboxamide]"
10,8.97,"COc1cc2c(cc1Nc1ncc(C(N)=O)c(NC3CC[C@H]4NCCC[C@@H]34)n1)CN(C)CC2 (stereo partly drawn) [Example 26-10, 2-[(6-methoxy-2-methyl-1,2,3,4-tetrahydroisoquinolin-7-yl)amino]-4-{[(4aR,7aR)-octahydro-1H-cyclopenta[b]pyridin-5-yl]amino}pyrimidine-5-carboxamide]"
11,9.22,"COC(=O)C1CC2CC(CC(Nc3nc(Nc4cc5c(cc4OC)CCN(C)C5)ncc3C(N)=O)C2)C1 (stereo not drawn) [Example 26-13, methyl 7-({5-carbamoyl-2-[(6-methoxy-2-methyl-1,2,3,4-tetrahydroisoquinolin-7-yl)amino]pyrimidin-4-yl}amino)bicyclo[3.3.1]nonane-3-carboxylate]"
12,9.85,"COc1cc2c(cc1Nc1ncc(C(N)=O)c(NC3C[C@@H]4CC[C@H]3C4)n1)CN(C)CC2 (stereo partly drawn) [Example 26-14, 4-{[(1S,4R)-bicyclo[2.2.1]heptan-2-yl]amino}-2-[(6-methoxy-2-methyl-1,2,3,4-tetrahydroisoquinolin-7-yl)amino]pyrimidine-5-carboxamide]"
13,9.60,"COc1cc2c(cc1Nc1ncc(C(N)=O)c(NC3CC4C5CCC(C5)C34)n1)CN(C)CC2 (stereo not drawn) [Example 26-15, 2-[(6-methoxy-2-methyl-1,2,3,4-tetrahydroisoquinolin-7-yl)amino]-4-[(tricyclo[4.2.1.0~2,5~]nonan-3-yl)amino]pyrimidine-5-carboxamide]"
14,9.24,"COc1cc2c(cc1Nc1ncc(C(N)=O)c(NCc3ccccc3OC(F)(F)F)n1)CN(C)CC2 [Example 26-18, 2-[(6-methoxy-2-methyl-1,2,3,4-tetrahydroisoquinolin-7-yl)amino]-4-({[2-(trifluoromethoxy)phenyl]methyl}amino)pyrimidine-5-carboxamide]"
15,8.60,"COc1cc2c(cc1Nc1ncc(C(N)=O)c(N[C@@H](C)c3cccc(F)c3F)n1)CN(C)CC2 [Example 26-19, 4-{[(1S)-1-(2,3-difluorophenyl)ethyl]amino}-2-[(6-methoxy-2-methyl-1,2,3,4-tetrahydroisoquinolin-7-yl)amino]pyrimidine-5-carboxamide]"
16,9.35,"COc1cc2c(cc1Nc1ncc(C(N)=O)c(N[C@H](C)c3cccc(F)c3F)n1)CN(C)CC2 [Example 26-20, 4-{[(1R)-1-(2,3-difluorophenyl)ethyl]amino}-2-[(6-methoxy-2-methyl-1,2,3,4-tetrahydroisoquinolin-7-yl)amino]pyrimidine-5-carboxamide]"
